For the assay, the system named is BDF1 mice, P388 leukemia ip, median survival T/C. The assay is described as follows: NCI In Vivo Anticancer Drug Screen. Data for tumor model P388 Leukemia (intraperitoneal) in B6D2F1 (BDF1) mice. The settings on record: endpoint: median survival time, higher = longer survival. In a few lines: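 Antitumour effect was judged in vivo: survival in drug-treated mice, normalised to that of vehicle-dosed controls, gives the reported T/C.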

Where [1] appears, read: dose: 100.0 mg/kg/injection, schedule: Q04DX003 (ip), vehicle: Klucel (hydroxypropylcellulose) (HPC).
Where [2] appears, read: dose: 200.0 mg/kg/injection, schedule: Q04DX003 (ip), vehicle: Klucel (hydroxypropylcellulose) (HPC).
Where [3] appears, read: dose: 400.0 mg/kg/injection, schedule: Q04DX003 (ip), vehicle: Klucel (hydroxypropylcellulose) (HPC).
Setting [4] is: dose: 50.0 mg/kg/injection, schedule: Q01DX009 (ip), vehicle: saline with Tween-80.
Setting [5] is: dose: 50.0 mg/kg/injection, schedule: Q01DX009 (ip), vehicle: saline.

Data on 14 compounds can be found in PubChem BioAssay AID328 (DTP/NCI, 2004).

“And” between values parts separate entries of the source, which are not always exact repeats. Identical values can stand only once. Inconclusive results and toxic doses are left out.

Take `CC(=O)Nc1ccc(Cl)cc1C(=O)O`: the T/C was 91 % of control under setting [1], 95 % of control under setting [2] and 100 % of control under setting [3].
On to `COc1cc(C)c(NC(=O)Oc2ccccc2)c(C)c1`, for which the T/C (dose: 100.0 mg/kg/injection, schedule: Q04DX003 (ip), vehicle: saline with Tween-80) is 104 % of control; the T/C (dose: 200.0 mg/kg/injection, schedule: Q04DX003 (ip), vehicle: saline with Tween-80) was 104 % of control; the T/C (dose: 400.0 mg/kg/injection, schedule: Q04DX003 (ip), vehicle: saline with Tween-80) was 104 % of control.
As for `CCOC(=O)C1CC(=O)c2ccccc2C1` (centres undefined), the T/C by setting is: (dose: 12.5 mg/kg/injection, schedule: Q01DX009 (ip), vehicle: other) 87 % of control; (dose: 100.0 mg/kg/injection, schedule: Q01DX009 (ip), vehicle: other) 96 % of control; (dose: 200.0 mg/kg/injection, schedule: Q01DX009 (ip), vehicle: other) 110 % of control.
In the case of `[NH-]C(Cc1ccc(O)cc1)C(=O)O.[NH-]C(Cc1ccc(O)cc1)C(=O)O.[Ni+2]` (centres undefined), the T/C (dose: 2.0 mg/kg/injection, schedule: Q01DX009 (ip), vehicle: saline) is 111 % of control; the T/C (dose: 4.0 mg/kg/injection, schedule: Q01DX009 (ip), vehicle: saline) is 107 % of control; the T/C (dose: 8.0 mg/kg/injection, schedule: Q01DX009 (ip), vehicle: saline) was 121 % of control; the T/C (dose: 25.0 mg/kg/injection, schedule: Q04DX003 (ip), vehicle: saline) was 112 % of control; the T/C (dose: 50.0 mg/kg/injection, schedule: Q04DX003 (ip), vehicle: saline) is 114 % of control.
Regarding `COc1ccc2nc(NCN3C(=O)c4ccccc4C3=O)sc2c1`, the T/C (dose: 100.0 mg/kg/injection, schedule: Q01DX001 (ip), vehicle: Klucel (hydroxypropylcellulose) (HPC)) was 104 % of control; the T/C (dose: 100.0 mg/kg/injection, schedule: Q01DX009 (ip), vehicle: Klucel (hydroxypropylcellulose) (HPC)) is 109 % of control; the T/C under setting [1] is 100 % of control; the T/C (dose: 200.0 mg/kg/injection, schedule: Q01DX001 (ip), vehicle: Klucel (hydroxypropylcellulose) (HPC)) is 100 % of control; the T/C (dose: 200.0 mg/kg/injection, schedule: Q01DX009 (ip), vehicle: Klucel (hydroxypropylcellulose) (HPC)) is 104 % of control; the T/C under setting [2] was 100 % of control. Further, the T/C (dose: 400.0 mg/kg/injection, schedule: Q01DX001 (ip), vehicle: Klucel (hydroxypropylcellulose) (HPC)) was 95 % of control; the T/C (dose: 400.0 mg/kg/injection, schedule: Q01DX009 (ip), vehicle: Klucel (hydroxypropylcellulose) (HPC)) was 104 % of control; the T/C under setting [3] is 100 % of control.
Take `CC(=O)Nc1cc(N(CCOS(C)(=O)=O)CCOS(C)(=O)=O)ccc1N=O`: the T/C (dose: 0.7 mg/kg/injection, schedule: Q04DX003 (ip), vehicle: saline with Tween-80) is 179 % of control; the T/C (dose: 1.1 mg/kg/injection, schedule: Q04DX003 (ip), vehicle: saline with Tween-80) is 212 % of control; the T/C (dose: 1.6 mg/kg/injection, schedule: Q04DX003 (ip), vehicle: saline with Tween-80) is 208 % of control; the T/C (dose: 1.65 mg/kg/injection, schedule: Q04DX003 (ip), vehicle: saline with Tween-80) was 150 % of control and 191 % of control; the T/C (dose: 2.5 mg/kg/injection, schedule: Q04DX003 (ip), vehicle: saline with Tween-80) was 175 % of control; the T/C (dose: 3.75 mg/kg/injection, schedule: Q04DX003 (ip), vehicle: saline with Tween-80) was 104 % of control.
In the case of `COC(=O)CCC1(c2ccccc2)CCCC1=O` (centres undefined), the T/C (dose: 12.5 mg/kg/injection, schedule: Q01DX009 (ip), vehicle: water) is 103 % of control; the T/C (dose: 25.0 mg/kg/injection, schedule: Q01DX009 (ip), vehicle: water) is 92 % of control; the T/C (dose: 100.0 mg/kg/injection, schedule: Q01DX009 (ip), vehicle: water) is 94 % of control; the T/C (dose: 200.0 mg/kg/injection, schedule: Q04DX003 (ip), vehicle: water) is 96 % of control; the T/C (dose: 300.0 mg/kg/injection, schedule: Q04DX003 (ip), vehicle: water) was 100 % of control; the T/C (dose: 400.0 mg/kg/injection, schedule: Q04DX003 (ip), vehicle: water) is 91 % of control.
Regarding `Nc1nnc[se]1`, the T/C by setting is: (dose: 12.5 mg/kg/injection, schedule: Q01DX009 (ip), vehicle: saline with Tween-80) 116 % of control; (dose: 12.5 mg/kg/injection, schedule: Q01DX009 (ip), vehicle: saline) 96 % of control; (dose: 25.0 mg/kg/injection, schedule: Q01DX009 (ip), vehicle: saline with Tween-80) 151 % of control; (dose: 25.0 mg/kg/injection, schedule: Q01DX009 (ip), vehicle: saline) 122 % of control; under setting [4], 164 % of control and 178 % of control.
In the case of `CN(C)c1ncnc2c1ncn2C1OC(CO)C(N)C1O` (centres undefined), the T/C (dose: 14.0 mg/kg/injection, schedule: Q01DX009 (ip), vehicle: saline) was 95 % of control; the T/C (dose: 22.0 mg/kg/injection, schedule: Q01DX009 (ip), vehicle: saline) is 100 % of control; the T/C under setting [5] was 150 % of control and 177 % of control.
Consider `CCOC(=N)c1cn(C2OC(CO)C(O)C2O)c2ncnc(N)c12` (centres undefined), for which the T/C is, setting by setting: (dose: 0.12 mg/kg/injection, schedule: Q01DX009 (ip), vehicle: saline with Tween-80) 168 % of control; (dose: 0.22 mg/kg/injection, schedule: Q01DX009 (ip), vehicle: saline) 174 % of control; (dose: 0.25 mg/kg/injection, schedule: Q01DX009 (ip), vehicle: saline with Tween-80) 195 % of control; (dose: 0.33 mg/kg/injection, schedule: Q01DX009 (ip), vehicle: saline) 196 % of control; (dose: 0.5 mg/kg/injection, schedule: Q01DX009 (ip), vehicle: saline with Tween-80) 163 % of control; (dose: 0.5 mg/kg/injection, schedule: Q01DX009 (ip), vehicle: saline) 186 % of control. The T/C is, setting by setting: (dose: 0.5 mg/kg/injection, schedule: Q04DX003 (ip), vehicle: saline with Tween-80) 150 % of control; (dose: 0.75 mg/kg/injection, schedule: Q01DX009 (ip), vehicle: saline) 196 % of control; (dose: 0.8 mg/kg/injection, schedule: Q04DX003 (ip), vehicle: saline with Tween-80) 190 % of control; (dose: 1.2 mg/kg/injection, schedule: Q04DX003 (ip), vehicle: saline with Tween-80) 272 % of control; (dose: 1.8 mg/kg/injection, schedule: Q04DX003 (ip), vehicle: saline with Tween-80) 190 % of control and 209 % of control; (dose: 2.6 mg/kg/injection, schedule: Q04DX003 (ip), vehicle: saline with Tween-80) 200 % of control. In addition, the T/C reads like this: (dose: 6.0 mg/kg/injection, schedule: Q04DX003 (ip), vehicle: saline with Tween-80) 90 % of control; (dose: 5.3 micrograms/kg/injection, schedule: Q01DX009 (ip), vehicle: saline) 106 % of control; (dose: 8.0 micrograms/kg/injection, schedule: Q01DX009 (ip), vehicle: saline) 115 % of control; (dose: 15.0 micrograms/kg/injection, schedule: Q01DX009 (ip), vehicle: saline with Tween-80) 120 % of control; (dose: 27.0 micrograms/kg/injection, schedule: Q01DX009 (ip), vehicle: saline) 152 % of control; (dose: 40.0 micrograms/kg/injection, schedule: Q01DX009 (ip), vehicle: saline) 159 % of control. Moreover, the T/C is 169 % of control (dose: 60.0 micrograms/kg/injection, schedule: Q01DX009 (ip), vehicle: saline); 155 % of control (dose: 66.0 micrograms/kg/injection, schedule: Q01DX009 (ip), vehicle: saline); 154 % of control (dose: 100.0 micrograms/kg/injection, schedule: Q01DX009 (ip), vehicle: saline).
Regarding `COc1cccc(CCC(=O)O)c1`, the T/C runs as follows: (dose: 100.0 mg/kg/injection, schedule: Q04DX003 (ip), vehicle: gum acacia) 100 % of control; (dose: 200.0 mg/kg/injection, schedule: Q04DX003 (ip), vehicle: gum acacia) 104 % of control; (dose: 400.0 mg/kg/injection, schedule: Q04DX003 (ip), vehicle: gum acacia) 113 % of control.
As to `CCCCOC(=O)c1ccc(OP(=O)(N(C)C)N(C)C)cc1`, the T/C runs as follows: under setting [4], 100 % of control; (dose: 100.0 mg/kg/injection, schedule: Q01DX009 (ip), vehicle: saline with Tween-80) 94 % of control; (dose: 200.0 mg/kg/injection, schedule: Q01DX009 (ip), vehicle: saline with Tween-80) 87 % of control.
With `OCCNCCNCC[OH2+].OCCNCCNCC[OH2+].[Ni+2].[O-][Cl+3]([O-])([O-])[O-]`, the T/C under setting [5] is 92 % of control.
As to `CCC(C)Nc1ccccc1` (centres undefined), the T/C is 95 % of control (dose: 50.0 mg/kg/injection, schedule: Q04DX003 (ip), vehicle: Klucel (hydroxypropylcellulose) (HPC)); 100 % of control under setting [1]; 108 % of control under setting [2].
